Patent US20100267561A1, “HERBICIDAL PYRIDAZINONE DERIVATIVES” (priority 2007, published 2010)

Key:
Type in all cases: in vivo
[1] = test system: surinam grass (Brachiaria decumbens); experiment: Test B pre-/postemergence plant response
Summary of the method: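 Seeds were sown and sprayed preemergence, while plants at 2 to 18 cm (1- to 4-leaf stage) got postemergence sprays. Compounds were formulated in a non-phytotoxic solvent mixture with surfactant. After 13 to 15 days in a greenhouse, injury was rated visually against untreated controls, 0 (no effect) to 100 (complete control).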

[2] = test system: canarygrass (Phalaris minor); experiment: Test B postemergence plant response; settings: for Canarygrass plant response rating: 8 g ai/ha, postemergence, 0-100 scale; for Plant response rating, Canarygrass: Postemergence
Summary of the method: (§1)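 Following treatment of plants 2 to 18 cm high after emergence, pots were held under glass for 13 to 15 days; efficacy was then graded visually, 100 denoting complete control and a dash no test result.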

[3] = test system: chickweed (Stellaria media); experiment: Test B postemergence plant response; settings: for Chickweed plant response rating: 8 g ai/ha, postemergence, 0-100 scale; for Plant response rating, Chickweed: Postemergence
Summary of the method: as §1

[4] = test system: winter barley (Hordeum vulgare); experiment: Test B postemergence plant response; settings: for Barley plant response rating: 8 g ai/ha, postemergence, 0-100 scale; for Plant response rating, Barley: Postemergence, scale 0 to 100, 0 no effect, 100 complete control
Summary of the method: as §1

[5] = test system: windgrass (Apera spica-venti); experiment: Test B postemergence plant response; settings: for Windgrass plant response rating: postemergence, 0-100 scale; for Plant response rating, Windgrass: Postemergence
Summary of the method: as §1

[6] = test system: barnyardgrass (Echinochloa crus-galli); experiment: Test A pre-/postemergence plant response
Summary of the method: (§2)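 Scores reflect visual plant injury relative to untreated controls on a 0–100 scale, recorded approximately 10 days after simultaneous preemergence soil spraying and postemergence spraying of one- to two-leaf seedlings grown in loam–sand.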

[7] = test system: pigweed (Amaranthus retroflexus); experiment: Test A pre-/postemergence plant response
Summary of the method: as §2

corn (Zea mays) = experiment: Test A pre-/postemergence plant response
Summary of the method: as §2

[8] = test system: large crabgrass (Digitaria sanguinalis); experiment: Test A pre-/postemergence plant response
Summary of the method: as §2

[9] = test system: wheat (Triticum aestivum); experiment: Test A pre-/postemergence plant response
Summary of the method: as §2

[10] = test system: giant foxtail (Setaria faberi); experiment: Test A pre-/postemergence plant response
Summary of the method: as §2

[11] = test system: morningglory (Ipomoea coccinea); experiment: Test A pre-/postemergence plant response
Summary of the method: as §2

[12] = test system: velvetleaf (Abutilon theophrasti); experiment: Test A pre-/postemergence plant response
Summary of the method: as §2

[13] = 8 g ai/ha, postemergence, 0-100 scale
[14] = Postemergence, 16 g ai/ha, scale 0 to 100
[15] = Postemergence, 31 g ai/ha, scale 0 to 100
[16] = Postemergence, 62 g ai/ha, scale 0 to 100, 0 no effect, 100 complete control
[17] = Preemergence, 31 g ai/ha, scale 0 to 100 (0 no effect, 100 complete control)
[18] = Preemergence, 62 g ai/ha, 0 to 100 scale, 0 no effect, 100 complete control
[19] = Preemergence, 8 g ai/ha, scale 0 to 100
[20] = 62 g ai/ha, scale 0 to 100, 0 no effect, 100 complete control
[21] = Postemergence, 31 g ai/ha, 0 to 100 scale (0 no effect, 100 complete control)
[22] = Postemergence, 125 g ai/ha, 0 to 100 scale, 0 no effect, 100 complete control
[23] = Preemergence, 31 g ai/ha, 0 to 100 scale, 0 is no effect, 100 is complete control
[24] = Preemergence, 125 g ai/ha, 0 to 100 scale (0 no effect, 100 complete control)
[25] = Preemergence, 16 g ai/ha, scale 0 to 100

## Cc1cc(-c2ccc(Cl)cc2)nn1-c1c(OC(=O)c2ccccc2)cnn(C)c1=O [Compound 48]
[1]; [13]
  Surinam Grass plant response rating: 75
[1]; [14]
  Plant response rating, Surinam Grass: 90
[1]; [15]
  Plant response rating, Surinam Grass: 100
[1]; [16]
  Plant response rating, Surinam Grass: 100
[1]; Preemergence, 16 g ai/ha, scale 0 to 100 (0 no effect, 100 complete control)
  Plant response rating, Surinam Grass: 40
[1]; [17]
  Plant response rating, Surinam Grass: 65
[1]; [18]
  Plant response rating, Surinam Grass: 75
[1]; [19]
  Surinam Grass plant response rating: 0
[2]
  Canarygrass plant response rating: 0
[2]; 16 g ai/ha, scale 0 to 100
  Plant response rating, Canarygrass: 0
[2]; 31 g ai/ha, scale 0 to 100
  Plant response rating, Canarygrass: 90
[3]
  Chickweed plant response rating: 0
[3]; 16 g ai/ha, scale 0 to 100
  Plant response rating, Chickweed: 0
[3]; 31 g ai/ha, scale 0 to 100
  Plant response rating, Chickweed: 0
[3]; [20]
  Plant response rating, Chickweed: 0
[4]
  Barley plant response rating: 0
[4]; 16 g ai/ha
  Plant response rating, Barley: 0
[4]; 62 g ai/ha
  Plant response rating, Barley: 10
[5]; 8 g ai/ha
  Windgrass plant response rating: 0
[5]; 16 g ai/ha, scale 0 to 100
  Plant response rating, Windgrass: 40
[5]; 31 g ai/ha, scale 0 to 100
  Plant response rating, Windgrass: 60
[5]; [20]
  Plant response rating, Windgrass: 80
[6]; [21]
  Plant response rating, Barnyardgrass: 20
[6]; [22]
  Plant response rating, Barnyardgrass: 90
[6]; [23]
  Plant response rating, Barnyardgrass: 60
[6]; [24]
  Plant response rating, Barnyardgrass: 100
[7]; [21]
  Plant response rating, Pigweed: 20
[7]; [22]
  Plant response rating, Pigweed: 30
[7]; [23]
  Plant response rating, Pigweed: 0
[7]; [24]
  Plant response rating, Pigweed: 0
Corn (Zea mays); [21]
  Plant response rating, Corn: 20
Corn (Zea mays); [22]
  Plant response rating, Corn: 60
Corn (Zea mays); [24]
  Plant response rating, Corn: 80
[8]; [21]
  Plant response rating, Crabgrass, Large: 20
[8]; [22]
  Plant response rating, Crabgrass, Large: 80
[8]; [23]
  Plant response rating, Crabgrass, Large: 60
[8]; [24]
  Plant response rating, Crabgrass, Large: 100
[9]; [21]
  Plant response rating, Wheat: 0
[9]; [22]
  Plant response rating, Wheat: 60
[9]; [23]
  Plant response rating, Wheat: 30
[9]; [24]
  Plant response rating, Wheat: 80
[10]; [21]
  Plant response rating, Foxtail, Giant: 30
[10]; [22]
  Plant response rating, Foxtail, Giant: 80
[10]; [23]
  Plant response rating, Foxtail, Giant: 90
[10]; [24]
  Plant response rating, Foxtail, Giant: 100
[11]; [21]
  Plant response rating, Morningglory: 0
[11]; [22]
  Plant response rating, Morningglory: 0
[11]; [23]
  Plant response rating, Morningglory: 0
[11]; [24]
  Plant response rating, Morningglory: 0
[12]; [21]
  Plant response rating, Velvetleaf: 20
[12]; [22]
  Plant response rating, Velvetleaf: 70
[12]; [23]
  Plant response rating, Velvetleaf: 0
[12]; [24]
  Plant response rating, Velvetleaf: 0

## Cc1cc(-c2ccc(Cl)cc2)nn1-c1c(OC(=O)OCC(C)C)cnn(C)c1=O [Compound 57]
[1]; [13]
  Surinam Grass plant response rating: 65
[1]; [14]
  Plant response rating, Surinam Grass: 75
[1]; [15]
  Plant response rating, Surinam Grass: 100
[1]; [16]
  Plant response rating, Surinam Grass: 100
[1]; [17]
  Plant response rating, Surinam Grass: 100
[1]; [18]
  Plant response rating, Surinam Grass: 100
[1]; [19]
  Surinam Grass plant response rating: 60
[1]; [25]
  Surinam Grass plant response rating: 98
[2]
  Canarygrass plant response rating: 0
[2]; 16 g ai/ha, scale 0 to 100
  Plant response rating, Canarygrass: 0
[2]; 31 g ai/ha, scale 0 to 100
  Plant response rating, Canarygrass: 0
[2]; [20]
  Plant response rating, Canarygrass: 60
[3]
  Chickweed plant response rating: 0
[3]; 16 g ai/ha, scale 0 to 100
  Plant response rating, Chickweed: 0
[3]; 31 g ai/ha, scale 0 to 100
  Plant response rating, Chickweed: 0
[3]; [20]
  Plant response rating, Chickweed: 0
[4]
  Barley plant response rating: 0
[4]; 16 g ai/ha
  Plant response rating, Barley: 0
[4]; 31 g ai/ha
  Plant response rating, Barley: 0
[4]; 62 g ai/ha
  Plant response rating, Barley: 40
[5]; 8 g ai/ha
  Windgrass plant response rating: 50
[5]; 16 g ai/ha, scale 0 to 100
  Plant response rating, Windgrass: 50
[5]; 31 g ai/ha, scale 0 to 100
  Plant response rating, Windgrass: 55
[5]; [20]
  Plant response rating, Windgrass: 70
[6]; [21]
  Plant response rating, Barnyardgrass: 0
[6]; [22]
  Plant response rating, Barnyardgrass: 80
[6]; [23]
  Plant response rating, Barnyardgrass: 60
[6]; [24]
  Plant response rating, Barnyardgrass: 100
[7]; [21]
  Plant response rating, Pigweed: 0
[7]; [22]
  Plant response rating, Pigweed: 0
[7]; [23]
  Plant response rating, Pigweed: 0
[7]; [24]
  Plant response rating, Pigweed: 0
Corn (Zea mays); [21]
  Plant response rating, Corn: 0
Corn (Zea mays); [22]
  Plant response rating, Corn: 60
Corn (Zea mays); [23]
  Plant response rating, Corn: 0
Corn (Zea mays); [24]
  Plant response rating, Corn: 50
[8]; [21]
  Plant response rating, Crabgrass, Large: 0
[8]; [22]
  Plant response rating, Crabgrass, Large: 80
[8]; [23]
  Plant response rating, Crabgrass, Large: 50
[8]; [24]
  Plant response rating, Crabgrass, Large: 100
[9]; [21]
  Plant response rating, Wheat: 0
[9]; [22]
  Plant response rating, Wheat: 50
[9]; [23]
  Plant response rating, Wheat: 0
[9]; [24]
  Plant response rating, Wheat: 70
[10]; [21]
  Plant response rating, Foxtail, Giant: 0
[10]; [22]
  Plant response rating, Foxtail, Giant: 90
[10]; [23]
  Plant response rating, Foxtail, Giant: 90
[10]; [24]
  Plant response rating, Foxtail, Giant: 100
[11]; [21]
  Plant response rating, Morningglory: 0
[11]; [22]
  Plant response rating, Morningglory: 0
[11]; [23]
  Plant response rating, Morningglory: 0
[11]; [24]
  Plant response rating, Morningglory: 0
[12]; [21]
  Plant response rating, Velvetleaf: 0
[12]; [22]
  Plant response rating, Velvetleaf: 0
[12]; [23]
  Plant response rating, Velvetleaf: 0
[12]; [24]
  Plant response rating, Velvetleaf: 0

## CCc1cc(-c2ccc(Br)cc2)nn1-c1c(O)cnn(C)c1=O [Compound 61]
[1]; [13]
  Surinam Grass plant response rating: 100
[1]; 16 g ai/ha, postemergence, 0-100 scale
  Surinam Grass plant response rating: 100
[1]; [15]
  Plant response rating, Surinam Grass: 100
[1]; [16]
  Plant response rating, Surinam Grass: 100
[1]; [17]
  Plant response rating, Surinam Grass: 100
[1]; [18]
  Plant response rating, Surinam Grass: 100
[1]; [19]
  Surinam Grass plant response rating: 85
[1]; [25]
  Surinam Grass plant response rating: 100
[2]
  Canarygrass plant response rating: 80
[2]; 16 g ai/ha, scale 0 to 100
  Plant response rating, Canarygrass: 85
[2]; 31 g ai/ha, scale 0 to 100
  Plant response rating, Canarygrass: 85
[2]; [20]
  Plant response rating, Canarygrass: 85
[3]
  Chickweed plant response rating: 0
[3]; 16 g ai/ha, scale 0 to 100
  Plant response rating, Chickweed: 0
[3]; 31 g ai/ha, scale 0 to 100
  Plant response rating, Chickweed: 0
[3]; [20]
  Plant response rating, Chickweed: 0
[4]
  Barley plant response rating: 70
[4]; 16 g ai/ha
  Plant response rating, Barley: 90
[4]; 31 g ai/ha
  Plant response rating, Barley: 90
[4]; 62 g ai/ha
  Plant response rating, Barley: 90
[5]; 8 g ai/ha
  Windgrass plant response rating: 90
[5]; 16 g ai/ha
  Windgrass plant response rating: 100
[5]; 31 g ai/ha, scale 0 to 100
  Plant response rating, Windgrass: 100
[5]; [20]
  Plant response rating, Windgrass: 100
[6]; [21]
  Plant response rating, Barnyardgrass: 100
[6]; [22]
  Plant response rating, Barnyardgrass: 100
[6]; [23]
  Plant response rating, Barnyardgrass: 90
[6]; [24]
  Plant response rating, Barnyardgrass: 100
[7]; [21]
  Plant response rating, Pigweed: 0
[7]; [22]
  Plant response rating, Pigweed: 0
[7]; [23]
  Plant response rating, Pigweed: 0
[7]; [24]
  Plant response rating, Pigweed: 0
Corn (Zea mays); [21]
  Plant response rating, Corn: 100
Corn (Zea mays); [22]
  Plant response rating, Corn: 100
Corn (Zea mays); [23]
  Plant response rating, Corn: 70
Corn (Zea mays); [24]
  Plant response rating, Corn: 90
[8]; [21]
  Plant response rating, Crabgrass, Large: 100
[8]; [22]
  Plant response rating, Crabgrass, Large: 100
[8]; [23]
  Plant response rating, Crabgrass, Large: 80
[8]; [24]
  Plant response rating, Crabgrass, Large: 100
[9]; [21]
  Plant response rating, Wheat: 80
[9]; [22]
  Plant response rating, Wheat: 90
[9]; [23]
  Plant response rating, Wheat: 70
[9]; [24]
  Plant response rating, Wheat: 90
[10]; [21]
  Plant response rating, Foxtail, Giant: 100
[10]; [22]
  Plant response rating, Foxtail, Giant: 100
[10]; [23]
  Plant response rating, Foxtail, Giant: 100
[10]; [24]
  Plant response rating, Foxtail, Giant: 100
[11]; [21]
  Plant response rating, Morningglory: 0
[11]; [22]
  Plant response rating, Morningglory: 0
[11]; [23]
  Plant response rating, Morningglory: 0
[11]; [24]
  Plant response rating, Morningglory: 0
[12]; [21]
  Plant response rating, Velvetleaf: 0
[12]; [22]
  Plant response rating, Velvetleaf: 0
[12]; [23]
  Plant response rating, Velvetleaf: 0
[12]; [24]
  Plant response rating, Velvetleaf: 0
